According to patent US8952177B2 (Janssen Pharmaceutica NV, priority 2013, dated 2015):
Counter-ions that a name gives are not always drawn.

Assays:
[1] = tested on: leukotriene pathway in human whole blood (LTB4); assay: Human whole blood assay (LTB4 after calcium ionophore A23187 stimulation); format: cell-based; settings: Homo sapiens, human whole blood diluted 1:1 in RPMI, 15 min pre-incubation, A23187 7 μg/mL for 30 min at 37° Celsius
Method in brief: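 Heparinised human whole blood, diluted 1:1 in RPMI, was preincubated with compound for 15 min at 37° C. before stimulation with A23187 (7 μg/mL) for 30 min. Plasma LTB4 was measured by immunoassay kit and IC50 obtained by 4-parameter fit; single replicate per plate, blood from at least one donor.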

human FLAP = human FLAP (Homo sapiens (Human), UniProt P20292); assay: FLAP binding assay (HTRF format); settings: human FLAP-containing Sf-9 membranes, 25 nM HTRF ligand, 2 h; average of runs; read-out: FLAP Binding wild type HTRF Ki
Sequence of human FLAP (P20292 whole entry): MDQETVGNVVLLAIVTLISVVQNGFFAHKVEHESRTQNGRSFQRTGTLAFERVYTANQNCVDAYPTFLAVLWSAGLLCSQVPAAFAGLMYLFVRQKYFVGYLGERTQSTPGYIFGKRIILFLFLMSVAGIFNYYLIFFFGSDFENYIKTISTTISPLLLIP
Method: The ability of the compounds of the present invention to treat a FLAP-mediated disease and/or disorder, or associated symptoms or complications thereof, was determined using the following procedures. Binding assay data represent the average value obtained from two different assay plates, with samples run in duplicate on each plate. Human whole blood assay data represent a single replicate on an assay plate using whole blood from at least one healthy donor.
The assay below is used to test the modulatory activity of compounds against FLAP. Human and mouse FLAP-encoding DNA was amplified by polymerase chain reaction and cloned into pFastBacl (Invitrogen) with a NH2-terminal 6-His tag for expression in Spodoptera frugiperda (Sf-9) cells. FLAP-containing membranes were prepared as was a FITC-labeled FLAP modulator (3-(3-(tert-butylthio)-1-(4-chlorobenzyl)-5-(quinolin-2-ylmethoxy)-1H-indol-2-yl)-2,2-dimethylpropanoic acid). The FLAP binding assay is performed in HTRF format (homogeneous time resolved fluorescence). […] The reaction is allowed to proceed for two hours after which the plate is read on an Envision plate reader in HTRF mode. Data are expressed as a HTRF ratio.
For human FLAP binding assays, data are analyzed with 3DX Explorer software. […] For analysis, data from multiple runs are averaged and each compound may be tested in 2 to 20 runs. Each run comprises two plates and each plate includes duplicates. Data from each plate is averaged and data are imported into 3DX. The data from multiple runs are aggregated as the average of duplicates of the calculated ratios in order to calculate Ki and IC50 values. Numbers in parentheses are the number of runs for the assay.

IC50 [1]	Ki (human FLAP)	SMILES
300 nM	4 nM	Cc1ccc(COc2ccc3nc(C4CCCC[C@H]4C(=O)O)n(Cc4ccc(N5CCC(F)(F)CC5)cc4F)c3c2)nc1 (mixture of isomers) [Example 161, racemic cis-2-{1-[4-(4,4-Difluoropiperidin-1-yl)-2-fluorobenzyl]-6-[(5-methylpyridin-2-yl)methoxy]-1H-benzimidazol-2-yl}cyclohexanecarboxylic acid]
2120 nM	160 nM	Cc1ccc(Cn2c(CC(C)(C)C(=O)O)nc3ccc(OCc4ncc(C)cc4F)cc32)c(F)c1 [Example 127, 3-{1-(2-Fluoro-4-methylbenzyl)-6-[(3-fluoro-5-methylpyridin-2-yl)methoxy]-1H-benzimidazol-2-yl}-2,2-dimethylpropanoic acid]
3880 nM	36 nM	CCC(CC)(Cc1nc2ccc(OCc3ccc(C)cn3)cc2n1Cc1cccc(-c2ccc(C(F)(F)F)cc2)c1)C(=O)O [Example 149, 2-ethyl-2-((6-((5-methylpyridin-2-yl)methoxy)-1-((4′-(trifluoromethyl)-[1,1′-biphenyl]-3-yl)methyl)-1H-benzo[d]imidazol-2-yl)methyl)butanoic acid]
860 nM	~500 nM	Cn1ccc(COc2ccc3nc([C@@H]4[C@H](C(=O)O)C4(C)C)n(Cc4ccc(Br)cc4)c3c2)n1 (racemic) [Example 134, racemic cis-3-{1-(4-Bromobenzyl)-6-[(1-methyl-1H-pyrazol-3-yl)methoxy]-1H-benzimidazol-2-yl}-2,2-dimethylcyclopropanecarboxylic acid]
1220 nM	12 nM	Cn1ccc(COc2cc(F)c3nc([C@@H]4CCCC[C@@H]4C(=O)O)n(Cc4ccc(N5CCCCC5)cc4)c3c2)n1 (racemic) [Example 169, racemic cis-2-{4-Fluoro-6-[(1-methyl-1H-pyrazol-3-yl)methoxy]-1-(4-piperidin-1-ylbenzyl)-1H-benzimidazol-2-yl}cyclohexanecarboxylic acid as the HCl salt]
550 nM	1.1 nM	Cn1ccc(COc2cc(F)c3nc([C@@H]4CCCC[C@@H]4C(=O)O)n(Cc4ccc(Br)cc4)c3c2)n1 (racemic) [Example 93, racemic cis-2-{1-(4-Bromobenzyl)-4-fluoro-6-[(1-methyl-1H-pyrazol-3-yl)methoxy]-1H-benzimidazol-2-yl}cyclohexanecarboxylic acid]

Further lines, the molecule ahead of its results:

SMILES	IC50 [1]	Ki (human FLAP)
CCC(CC)(Cc1nc2ccc(OCc3ccc(C)cn3)cc2n1Cc1ccc(OC(F)(F)F)cc1C)C(=O)O [Example 105]	6250 nM	40 nM
Cc1ccc(COc2ccc3nc([C@H]4CCCC[C@H]4C(=O)O)n(Cc4ccc(C#N)cc4)c3c2)nc1 (stereo in doubt) [Example 39, (1R*,2S*)-2-{1-(4-Cyanobenzyl)-6-[(5-methylpyridin-2-yl)methoxy]-1H-benzimidazol-2-yl}cyclohexanecarboxylic acid]	1070 nM	10 nM
CCC(CC)(Cc1nc2c(F)cc(OCc3ccc(C)cn3)cc2n1Cc1ccc(Br)cc1)C(=O)O [Example 65, 2-({1-(4-Bromobenzyl)-4-fluoro-6-[(5-methylpyridin-2-yl)methoxy]-1H-benzimidazol-2-yl}methyl)-2-ethylbutanoic acid as the TFA salt]	1120 nM	6 nM
CCC(CC)(Cc1nc2ccc(OCc3ccc(C)cn3)cc2n1Cc1ccc(OC(F)(F)F)c(Cl)c1)C(=O)O [Example 24, 2-({1-[3-Chloro-4-(trifluoromethoxy)benzyl]-6-[(5-methylpyridin-2-yl)methoxy]-1H-benzimidazol-2-yl}methyl)-2-ethylbutanoic acid]	> 10000 nM	11 nM
Cn1ccc(COc2ccc3nc(C4CCCC[C@@H]4C(=O)O)n(Cc4ccc(C#N)cc4)c3c2)n1 (mixture of isomers) [Example 48, racemic trans-2-{1-(4-Cyanobenzyl)-6-[(1-methyl-1H-pyrazol-3-yl)methoxy]-1H-benzimidazol-2-yl}cyclohexanecarboxylic acid as the TFA salt]	–	~750 nM
